Results reported in ChEMBL document CHEMBL4270561, “Biological activity of doubly modified salinomycin analogs - Evaluation in vitro and ex vivo” (Eur J Med Chem, 2018).
Active and inactive are the calls of the source. No cut-off for these calls is given here.

Legend:
SK-BR-3 [1] = experiment: Antiproliferative activity against human SK-BR-3 cells at 100 ug/ml after 72 hrs by SRB assay relative to control; format: functional
LoVo [2] = experiment: Antiproliferative activity against human LoVo cells at 100 ug/ml after 72 hrs by SRB assay relative to control; format: functional
[3] = Antiproliferative activity against human LoVo/DX cells at 100 ug/ml after 72 hrs by SRB assay relative to control; format: functional
MCF7 = experiment: Antiproliferative activity against human MCF7 cells after 72 hrs by SRB assay; format: functional, cell-based; details: MCF7, 72 h
JIMT-1 [4] = experiment: Antiproliferative activity against human JIMT1 cells at 100 ug/ml after 72 hrs by SRB assay relative to control; format: functional
[5] = Antiproliferative activity against human ALL5 cells at 10 uM after 120 hrs by MTT assay relative to control; format: functional
MCF-10A [6] = experiment: Antiproliferative activity against human MCF10A cells at 100 ug/ml after 72 hrs by SRB assay relative to control; format: cell-based
[7] = Cell cycle arrest in human ALL5 cells assessed as accumulation at G0/G1 phase at 5 times antiproliferative IC50 after 96 hrs by propidium iodide staining based flow cytometry (reference value: 69.8%); format: functional
[8] = Cell cycle arrest in human ALL5 cells assessed as accumulation at S-phase at 5 times antiproliferative IC50 after 96 hrs by propidium iodide staining based flow cytometry (reference value: 7.52%); format: functional
[9] = Cell cycle arrest in human ALL5 cells assessed as accumulation at G0/G1 phase at 5 times antiproliferative IC50 after 24 hrs by propidium iodide staining based flow cytometry (reference value: 79.7%); format: functional
Homo sapiens [10] = species on record: Homo sapiens; experiment: Induction of apoptosis in human ALL5 cells assessed as increase in cleaved PARP expression at 9.5 uM up to 48 hrs by immunoblot analysis; format: functional, cell-based
[11] = Antiproliferative activity against human LoVo/DX cells after 72 hrs by SRB assay; format: functional, cell-based
[12] = Cell cycle arrest in human ALL5 cells assessed as accumulation at sub-G1 phase at 5 times antiproliferative IC50 after 96 hrs by propidium iodide staining based flow cytometry (reference value: 12%); format: functional
[13] = Cell cycle arrest in human ALL5 cells assessed as accumulation at S-phase at 5 times antiproliferative IC50 after 48 hrs by propidium iodide staining based flow cytometry (reference value: 9.82%); format: functional
Homo sapiens [14] = species on record: Homo sapiens; experiment: Induction of apoptosis in human ALL5 cells assessed as increase in cleaved PARP expression at 9.5 uM after 96 hrs by immunoblot analysis; format: functional, cell-based
Homo sapiens [15] = species on record: Homo sapiens; experiment: Induction of apoptosis in human ALL5 cells assessed as increase in p53 expression at 9.5 uM up to 96 hrs by immunoblot analysis; format: functional, cell-based
[16] = Cell cycle arrest in human ALL5 cells assessed as accumulation at G2/M-phase at 5 times antiproliferative IC50 after 96 hrs by propidium iodide staining based flow cytometry (reference value: 11.1%); format: functional
[17] = Antiproliferative activity against human ALL5 cells after 120 hrs by MTT assay; format: functional, cell-based; details: ALL5, 120 h
[18] = Cell cycle arrest in human ALL5 cells assessed as accumulation at sub-G1 phase at 5 times antiproliferative IC50 after 48 hrs by propidium iodide staining based flow cytometry (reference value: 7.8%); format: functional
[19] = Cell cycle arrest in human ALL5 cells assessed as accumulation at sub-G1 phase at 5 times antiproliferative IC50 after 24 hrs by propidium iodide staining based flow cytometry (reference value: 6.07%); format: functional
[20] = Cell cycle arrest in human ALL5 cells assessed as accumulation at G0/G1 phase at 5 times antiproliferative IC50 after 48 hrs by propidium iodide staining based flow cytometry (reference value: 69.6%); format: functional
[21] = Cell cycle arrest in human ALL5 cells assessed as accumulation at G2/M-phase at 5 times antiproliferative IC50 after 24 hrs by propidium iodide staining based flow cytometry (reference value: 7.98%); format: functional
[22] = Cell cycle arrest in human ALL5 cells assessed as accumulation at G2/M-phase at 5 times antiproliferative IC50 after 48 hrs by propidium iodide staining based flow cytometry (reference value: 13.2%); format: functional
[23] = Cell cycle arrest in human ALL5 cells assessed as accumulation at S-phase at 5 times antiproliferative IC50 after 24 hrs by propidium iodide staining based flow cytometry (reference value: 6.76%); format: functional
[24] = Resistance index, ratio of IC50 for human LoVo/DX cells to IC50 for human LoVo cells; format: functional
[25] = Selectivity index, ratio of IC50 for human MCF10A cells to IC50 for human LoVo/DX cells; format: toxicity; details: MCF10A cells versus LoVo/DX cells, read-out: Ratio IC50
[26] = Selectivity index, ratio of IC50 for human MCF10A cells to IC50 for human JIMT1 cells; format: toxicity; details: MCF10A cells versus JIMT1 cells, read-out: Ratio IC50
[27] = Selectivity index, ratio of IC50 for human MCF10A cells to IC50 for human MCF7 cells; format: toxicity; details: MCF10A cells versus MCF7 cells, read-out: Ratio IC50
[28] = Selectivity index, ratio of IC50 for human MCF10A cells to IC50 for human SK-BR-3 cells; format: toxicity; details: MCF10A cells versus SK-BR-3 cells, read-out: Ratio IC50
[29] = Selectivity index, ratio of IC50 for human MCF10A cells to IC50 for human ALL5 cells; format: toxicity; details: MCF10A cells versus ALL5 cells, read-out: Ratio IC50
Breast carcinoma cell [30] = experiment: Ex vivo antitumor activity against patient derived breast cancer tissue assessed as increase in number of dead tumor cells at 6.2 uM by H and E staining based immunohistochemical analysis; format: functional; details: Homo sapiens, TDE = time-dependent effect
Breast carcinoma cell [31] = experiment: Ex vivo antitumor activity against patient derived breast cancer tissue assessed as decrease in tumor cell proliferation at 6.2 uM by Ki-67 staining based immunohistochemical analysis; format: functional; details: Homo sapiens, TDE = time-dependent effect
[32] = Selectivity index, ratio of IC50 for human MCF10A cells to IC50 for human LoVo cells; format: toxicity; details: MCF10A cells versus LoVo cells, read-out: Ratio IC50
SK-BR-3 [33] = experiment: Antiproliferative activity against human SK-BR-3 cells after 72 hrs by SRB assay; format: functional, cell-based; details: SK-BR-3, 72 h
LoVo [34] = experiment: Antiproliferative activity against human LoVo cells after 72 hrs by SRB assay; format: functional, cell-based
JIMT-1 [35] = experiment: Antiproliferative activity against human JIMT1 cells after 72 hrs by SRB assay; format: functional, cell-based; details: JIMT-1, 72 h
MCF-10A [36] = experiment: Antiproliferative activity against human MCF10A cells after 72 hrs by SRB assay; format: cell-based
Homo sapiens [37] = species on record: Homo sapiens; experiment: Induction of apoptosis in human ALL5 cells assessed as increase in p53 expression at 0.2 uM up to 96 hrs by immunoblot analysis; format: functional, cell-based
Homo sapiens [38] = species on record: Homo sapiens; experiment: Induction of apoptosis in human ALL5 cells assessed as increase in cleaved PARP expression at 0.2 uM up to 96 hrs by immunoblot analysis; format: functional, cell-based
Breast carcinoma cell [39] = experiment: Ex vivo antitumor activity against patient derived breast cancer tissue assessed as increase in number of dead tumor cells at 18.5 uM by H and E staining based immunohistochemical analysis; format: functional; details: Homo sapiens, TDE = time-dependent effect
Breast carcinoma cell [40] = experiment: Ex vivo antitumor activity against patient derived breast cancer tissue assessed as decrease in tumor cell proliferation at 18.5 uM by Ki-67 staining based immunohistochemical analysis; format: functional; details: Homo sapiens, TDE = time-dependent effect

CCOC(=O)O[C@@H]1C=C[C@]2(O[C@H]([C@@H](CC)C(=O)[C@@H](C)[C@@H](O)[C@H](C)[C@@H]3O[C@@H]([C@@H](CC)C(=O)OCC(F)(F)F)CC[C@@H]3C)[C@@H](C)C[C@H]2C)O[C@@]12CC[C@@](C)([C@H]1CC[C@](O)(CC)[C@H](C)O1)O2
Activity (SK-BR-3 [1]): <=50% | Activity (LoVo [2]): <=50% | Activity [3]: <=50% | IC50 (MCF7): 68000 nM | Activity (JIMT-1 [4]): <=50% | Activity [5]: <=50% | Activity (MCF-10A [6]): <= 50%

C#CCOC(=O)[C@H](CC)[C@H]1CC[C@H](C)[C@H]([C@@H](C)[C@H](O)[C@H](C)C(=O)[C@H](CC)[C@H]2O[C@]3(C=C[C@@H](OC(=O)OCC)[C@]4(CC[C@@](C)([C@H]5CC[C@](O)(CC)[C@H](C)O5)O4)O3)[C@H](C)C[C@@H]2C)O1
Activity [7]: 67.8% | Activity [8]: 5.03% | Activity [9]: 81.2% | Activity (Homo sapiens [10]): inactive | IC50 [11]: 8100 nM | Activity [12]: 19.8% | Activity [13]: 5.9% | Activity (Homo sapiens [14]): Active | Activity (SK-BR-3 [1]): <=50% | Activity (LoVo [2]): <=50% | Activity (Homo sapiens [15]): Active | Activity [16]: 7.59% | IC50 (MCF7): 38000 nM | Activity (JIMT-1 [4]): <=50% | IC50 [17]: 1900 nM | Activity [18]: 10.6% | Activity [19]: 4.82% | Activity [20]: 75.6% | Activity [21]: 8.79% | Activity [22]: 8.29% | Activity (MCF-10A [6]): <= 50% | Activity [23]: 5.6%

CC[C@@H](C(=O)[C@@H](C)[C@@H](O)[C@H](C)[C@@H]1O[C@@H]([C@@H](CC)C(=O)O)CC[C@@H]1C)[C@H]1O[C@]2(C=C[C@@H](O)[C@]3(CC[C@@](C)([C@H]4CC[C@](O)(CC)[C@H](C)O4)O3)O2)[C@H](C)C[C@@H]1C [SALINOMYCIN]
IC50 [11]: 690 nM | Ratio IC50 [24]: 1.6 | selectivity ratio [25]: 67 | selectivity ratio [26]: 35 | selectivity ratio [27]: 31 | selectivity ratio [28]: 52 | selectivity ratio [29]: 19 | Activity (Breast carcinoma cell [30]): Tde | IC50 (MCF7): 1500 nM | Activity (Breast carcinoma cell [31]): Tde | IC50 [17]: 2400 nM | selectivity ratio [32]: 105 | IC50 (SK-BR-3 [33]): 890 nM | IC50 (LoVo [34]): 440 nM | IC50 (JIMT-1 [35]): 1300 nM | IC50 (MCF-10A [36]): 46000 nM

COc1cccc2c1C(=O)c1c(O)c3c(c(O)c1C2=O)C[C@@](O)(C(=O)CO)C[C@@H]3O[C@H]1C[C@H](N)[C@H](O)[C@H](C)O1 [DOXORUBICIN]
Activity [7]: 31.6% | Activity [9]: 78.2% | Activity (Homo sapiens [37]): Active | IC50 [11]: 10000 nM | Activity [12]: 62.7% | Activity [13]: 3.23% | Activity [16]: 2.16% | IC50 (MCF7): 260 nM | IC50 [17]: 40 nM | Activity [18]: 27.4% | Activity [19]: 8.94% | Activity [20]: 66.8% | Activity [21]: 8.96% | Activity (Homo sapiens [38]): Active | IC50 (SK-BR-3 [33]): 370 nM | Activity [22]: 2.76% | IC50 (LoVo [34]): 240 nM | IC50 (JIMT-1 [35]): 590 nM | IC50 (MCF-10A [36]): 580 nM

CC[C@@H](C(=O)[C@@H](C)[C@@H](O)[C@H](C)[C@@H]1O[C@@H]([C@@H](CC)C(=O)NCCc2ccc(F)cc2)CC[C@@H]1C)[C@H]1O[C@]2(C=C[C@@H](OC(C)=O)[C@]3(CC[C@@](C)([C@H]4CC[C@](O)(CC)[C@H](C)O4)O3)O2)[C@H](C)C[C@@H]1C
Activity [7]: 47.3% | Activity [8]: 1.55% | Activity [9]: 79.9% | IC50 [11]: 3500 nM | Activity [12]: 49.3% | Ratio IC50 [24]: 0.88 | selectivity ratio [25]: 12 | Activity [13]: 2.15% | selectivity ratio [26]: 12 | selectivity ratio [27]: 12 | selectivity ratio [28]: 11 | Activity (Breast carcinoma cell [39]): Tde | Activity (Breast carcinoma cell [40]): Tde | Activity [16]: 1.96% | selectivity ratio [29]: 24 | IC50 (MCF7): 3700 nM | IC50 [17]: 1800 nM | Activity [18]: 27.4% | selectivity ratio [32]: 11 | Activity [19]: 11% | Activity [20]: 65.6% | Activity [21]: 5.08% | IC50 (SK-BR-3 [33]): 3800 nM | Activity [22]: 5.2% | IC50 (LoVo [34]): 4000 nM | Activity [23]: 4.18% | IC50 (JIMT-1 [35]): 3700 nM | IC50 (MCF-10A [36]): 43000 nM
